These results are taken from article PMC12692968, “Design, Synthesis, Molecular Docking, and Anticancer Activity of Chalcone Derivatives as VEGFR-2 Inhibitors” (Molecules, 2025).

As usually defined, the IC50 is the point on the concentration scale where inhibition reaches its midpoint. The low end stands for higher potency, the high end for lower potency.

Data set [1] has as its system human cervical squamous cell carcinoma cell line SiHa. Put plainly: CCK-8 cytotoxicity assay, SiHa cells. The data set is classed as cell-based. The settings on record: for IC50: Homo sapiens, SiHa, CCK-8, 48 h incubation, mean ± SD, n = 3. As for the experimental part: (§1) The SiHa, K562, B16 and HK-2 cells were obtained from Wuhan Pricella Biotechnology Co., Ltd. (Wuhan, China). […] 2–5 × 10^3 cells were added to each well of a 96-well plate and incubated for 12 h, followed by the addition of the tested compounds. After incubation for 48 h, 10 μL of the CCK-8 solution was added to each well and incubated for another 2 h. The absorbance of each well was measured at 450 nm using an enzyme-linked immunosorbent assay (ELISA) reader. The experiments were replicated three times. The inhibition rate of cancer cells was calculated using the Formula (1). The half-maximal inhibitory concentration (IC50) value was calculated using GraphPad Prism 8.0 software.
On the technique in general: Tetrazolium dyes change colour on reduction, which living cells bring about.

For data set [2], the system named is mouse melanoma cell line B16. The data set is described as follows: CCK-8 cytotoxicity assay, B16 cells. The class given is cell-based. The settings on record: for IC50: CCK-8, 48 h incubation, mean ± SD, n = 3. As for the experimental part:
as §1

The subject of data set [3] is human chronic myeloid leukemia cell line K562. The data set is described as follows: CCK-8 cytotoxicity assay, K562 cells. The data set is classed as cell-based. The settings on record: for IC50: CCK-8, 48 h incubation, mean ± SD, n = 3. As for the experimental part: as §1
Data set [4] concerns human renal epithelial cell line HK-2. The data set is described as follows: CCK-8 cytotoxicity assay, HK-2 cells. The class given is cell-based. The settings on record: Homo sapiens, Epithelial cell; CCK-8, 48 h incubation, mean ± SD, n = 3. The protocol: as §1, with “The cytotoxicity of synthesized compounds against HK-2 cells was also detected. […] The SiHa,” for “The SiHa,”

The target in data set [5] is T1, VEGFR-2 (KDR) protein kinase (Homo sapiens, UniProt P35968).
T1 construct: purchased BPS Biosciences, San Diego, CA, USA
T1 sequence (P35968 20-1356): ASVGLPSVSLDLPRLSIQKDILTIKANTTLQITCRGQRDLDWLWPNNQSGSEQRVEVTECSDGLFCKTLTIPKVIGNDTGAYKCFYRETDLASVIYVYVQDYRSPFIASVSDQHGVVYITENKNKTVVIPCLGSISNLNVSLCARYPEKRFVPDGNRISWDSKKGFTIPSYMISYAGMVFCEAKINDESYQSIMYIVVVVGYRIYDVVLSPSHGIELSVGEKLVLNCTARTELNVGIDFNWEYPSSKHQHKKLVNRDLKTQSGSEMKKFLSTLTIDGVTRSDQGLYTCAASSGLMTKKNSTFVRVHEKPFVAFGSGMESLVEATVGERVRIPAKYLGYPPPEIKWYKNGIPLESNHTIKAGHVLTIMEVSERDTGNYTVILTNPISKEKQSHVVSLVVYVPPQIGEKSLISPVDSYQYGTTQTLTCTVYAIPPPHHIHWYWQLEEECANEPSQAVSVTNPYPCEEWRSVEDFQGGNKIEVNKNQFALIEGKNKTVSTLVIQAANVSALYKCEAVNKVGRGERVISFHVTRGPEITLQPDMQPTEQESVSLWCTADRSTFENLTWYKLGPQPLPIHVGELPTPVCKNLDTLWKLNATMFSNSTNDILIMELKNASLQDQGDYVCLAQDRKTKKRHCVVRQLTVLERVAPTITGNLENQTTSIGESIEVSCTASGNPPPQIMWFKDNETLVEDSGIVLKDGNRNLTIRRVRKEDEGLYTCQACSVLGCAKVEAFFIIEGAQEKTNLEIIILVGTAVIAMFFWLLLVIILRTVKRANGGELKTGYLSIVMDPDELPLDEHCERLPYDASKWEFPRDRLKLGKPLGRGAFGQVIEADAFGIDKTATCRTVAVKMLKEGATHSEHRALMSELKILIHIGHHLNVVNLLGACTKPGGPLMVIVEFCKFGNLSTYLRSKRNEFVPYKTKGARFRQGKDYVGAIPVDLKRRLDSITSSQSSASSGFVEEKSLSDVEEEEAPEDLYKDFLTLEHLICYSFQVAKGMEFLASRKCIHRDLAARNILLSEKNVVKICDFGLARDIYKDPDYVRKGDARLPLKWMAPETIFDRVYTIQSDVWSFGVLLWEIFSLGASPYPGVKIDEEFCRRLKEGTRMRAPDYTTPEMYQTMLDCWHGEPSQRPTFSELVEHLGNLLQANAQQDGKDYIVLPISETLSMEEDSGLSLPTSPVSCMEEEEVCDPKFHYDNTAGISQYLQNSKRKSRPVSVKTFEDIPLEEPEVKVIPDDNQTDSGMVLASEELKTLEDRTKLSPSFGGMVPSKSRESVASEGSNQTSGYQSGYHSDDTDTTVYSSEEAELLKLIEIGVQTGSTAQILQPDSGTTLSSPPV
Put plainly: VEGFR-2 (KDR) Kinase Assay Kit enzyme inhibition assay. The class given is biochemical. The settings on record: Kinase-Glo MAX, 30 °C 45 min, mean ± SD, n = 3. The protocol:
Many studies have shown that abnormal VEGFR-2 signaling could induce proliferation of cervical squamous cell carcinoma cells, myeloid leukemia cancer cells, and melanoma cells. […] A VEGFR-2 (KDR) Kinase Assay Kit (BPS Biosciences, San Diego, CA, USA) was used to conduct a VEGFR-2 inhibition assay following the manufacturer’s protocol. Briefly, kinase buffer and ATP and PTK substrate (Poly-Glu,Tyr 4:1) were diluted with distilled water to prepare a master mix solution. The master mix solution, test sample, and VEGFR-2 (KDR) protein kinase (2 ng/μL) were added to a 96-well plate and incubated at 30 °C for 45 min. After incubation, Kinase-Glo™ MAX (BPS Biosciences) reagent was added to each well, and incubated for 15 min at room temperature. Then it was immediately detected with an ELISA reader. The experiments were replicated three times.
In general terms: Kinase-Glo reads ATP consumption through a luciferase reaction.

`O=C(Nc1ccc(C(=O)C=Cc2ccccc2)cc1)Nc1ccc(Cl)c(C(F)(F)F)c1` [Compound 2a, 1-(4-chloro-3-(trifluoromethyl)phenyl)-3-(4-cinnamoylphenyl)urea]: the IC50 in data set [1] worked out at 4.43 ± 0.16 µM; in data set [2] (Mus musculus, B16, 48 h), 10.7 ± 0.78 µM; in data set [3] (Homo sapiens, K562, 48 h), 12.7 ± 0.45 µM.

On to `COc1ccc(/C=C/C(=O)c2ccc(NC(=O)Nc3ccc(Cl)c(C(F)(F)F)c3)cc2)cc1` [Compound 2b, (E)-1-(4-chloro-3-(trifluoromethyl)phenyl)-3-(4-(3-(4-methoxyphenyl)acryloyl)phenyl)urea], for which the IC50 in data set [1] was 5.55 ± 0.26 µM; in data set [2] (Mus musculus, B16, 48 h) it was 8.32 ± 0.61 µM; in data set [3] (Homo sapiens, K562, 48 h) it was 5.08 ± 0.31 µM.

On to `O=C(Nc1ccc(C(=O)/C=C/c2ccc(F)cc2)cc1)Nc1ccc(Cl)c(C(F)(F)F)c1` [Compound 2c, (E)-1-(4-chloro-3-(trifluoromethyl)phenyl)-3-(4-(3-(4-fluorophenyl)acryloyl)phenyl)urea], for which the IC50 in data set [1] worked out at 1.03 ± 0.02 µM; in data set [4], 15.7 ± 1.22 µM; in data set [2] (Mus musculus, B16, 48 h), 5.02 ± 0.18 µM; in data set [5], 0.68 ± 0.03 µM; in data set [3] (Homo sapiens, K562, 48 h), 2.05 ± 0.13 µM. Besides, the “fold increase in cytotoxicity compared to unsubstituted compound 2a, SiHa” value in data set [1] (ratio of IC50 values vs 2a) worked out at 4.3 fold. Also, the “fold increase in cytotoxicity compared to unsubstituted compound 2a, B16” value in data set [2] (ratio of IC50 values vs 2a) was 2.1 fold. Further, in data set [3] (ratio of IC50 values vs 2a), the “fold increase in cytotoxicity compared to unsubstituted compound 2a, K562” value was 6.2 fold.

Take `O=C(Nc1ccc(C(=O)/C=C/c2ccc(Cl)cc2)cc1)Nc1ccc(Cl)c(C(F)(F)F)c1` [Compound 2d, (E)-1-(4-chloro-3-(trifluoromethyl)phenyl)-3-(4-(3-(4-chlorophenyl)acryloyl)phenyl)urea]: the IC50 stood at 4.78 ± 0.14 µM in data set [1]; 12.8 ± 0.84 µM in data set [2] (Mus musculus, B16, 48 h); 8.41 ± 0.57 µM in data set [3] (Homo sapiens, K562, 48 h).

Turning to `O=C(Nc1ccc(C(=O)/C=C/c2cccc(Cl)c2)cc1)Nc1ccc(Cl)c(C(F)(F)F)c1` [Compound 2e, (E)-1-(4-chloro-3-(trifluoromethyl)phenyl)-3-(4-(3-(3-chlorophenyl)acryloyl)phenyl)urea], the IC50 stood at 4.71 ± 0.29 µM in data set [1]; 11.3 ± 0.64 µM in data set [2] (Mus musculus, B16, 48 h); 2.91 ± 0.17 µM in data set [3] (Homo sapiens, K562, 48 h).

Consider `COc1cc(/C=C/C(=O)c2ccc(NC(=O)Nc3ccc(Cl)c(C(F)(F)F)c3)cc2)cc(OC)c1OC` [Compound 2f, (E)-1-(4-chloro-3-(trifluoromethyl)phenyl)-3-(4-(3-(3,4,5-trimethoxyphenyl)acryloyl)phenyl)urea], for which the IC50 in data set [1] is 4.89 ± 0.21 µM; in data set [4] it was 5.85 ± 0.36 µM; in data set [2] it was 1.65 ± 0.29 µM; in data set [2] (Mus musculus, B16, 48 h) it was 1.62 to 2.02 µM; in data set [5], 0.39 ± 0.02 µM; in data set [3] it was 1.68 ± 0.09 µM. The half-maximal inhibitory concentration (IC50) in data set [3] (Homo sapiens, K562, 48 h) fell in the range of 1.62 to 2.02 µM.

On to `Cc1ccc(/C=C/C(=O)c2ccc(NC(=O)Nc3ccc(Cl)c(C(F)(F)F)c3)cc2)cc1` [Compound 2g, (E)-1-(4-chloro-3-(trifluoromethyl)phenyl)-3-(4-(3-(p-tolyl)acryloyl)phenyl)urea], for which the IC50 was 6.03 ± 0.38 µM in data set [1]; 7.15 ± 0.49 µM in data set [2] (Mus musculus, B16, 48 h); 4.19 ± 0.26 µM in data set [3] (Homo sapiens, K562, 48 h).

In the case of `COc1cc(/C=C/C(=O)c2ccc(NC(=O)Nc3ccc(Cl)c(C(F)(F)F)c3)cc2)cc(OC)c1` [Compound 2h, (E)-1-(4-chloro-3-(trifluoromethyl)phenyl)-3-(4-(3-(3,5-dimethoxyphenyl)acryloyl)phenyl)urea], the concentration for half-maximal inhibition (IC50) in data set [1] was 2.99 ± 0.27 µM; in data set [4], 9.87 ± 0.89 µM; in data set [2], 1.62 ± 0.14 µM; in data set [2] (Mus musculus, B16, 48 h) it was 1.62 to 2.02 µM; in data set [3] it was 2.02 ± 0.12 µM; in data set [3] (Homo sapiens, K562, 48 h), 1.62 to 2.02 µM.

As for `CCc1ccc(/C=C/C(=O)c2ccc(NC(=O)Nc3ccc(Cl)c(C(F)(F)F)c3)cc2)cc1` [Compound 2i, (E)-1-(4-chloro-3-(trifluoromethyl)phenyl)-3-(4-(3-(4-ethylphenyl)acryloyl)phenyl)urea], the half-maximal inhibitory concentration (IC50) in data set [1] is 7.96 ± 0.26 µM; in data set [2] (Mus musculus, B16, 48 h), 8.66 ± 0.58 µM; in data set [3] (Homo sapiens, K562, 48 h), 4.45 ± 0.53 µM.

Turning to `COc1ccc(/C=C/C(=O)c2ccc(NC(=O)Nc3ccc(Cl)c(C(F)(F)F)c3)cc2)c(OC)c1OC` [Compound 2j, (E)-1-(4-chloro-3-(trifluoromethyl)phenyl)-3-(4-(3-(2,3,4-trimethoxyphenyl)acryloyl)phenyl)urea], the IC50 was found to be 6.62 ± 0.28 µM in data set [1]; 9.73 ± 0.98 µM in data set [2] (Mus musculus, B16, 48 h); 2.4 ± 0.22 µM in data set [3] (Homo sapiens, K562, 48 h).

For `Cc1ccc(/C=C/C(=O)c2ccc(NC(=O)Nc3ccc(Cl)c(C(F)(F)F)c3)cc2)cc1C` [Compound 2k, (E)-1-(4-chloro-3-(trifluoromethyl)phenyl)-3-(4-(3-(3,4-dimethylphenyl)acryloyl)phenyl)urea], the IC50 is 8.35 ± 0.09 µM in data set [1]; 6.42 ± 0.54 µM in data set [2] (Mus musculus, B16, 48 h); 1.73 ± 0.23 µM in data set [3] (Homo sapiens, K562, 48 h).

As to `O=C(Nc1ccc(C(=O)/C=C/c2ccco2)cc1)Nc1ccc(Cl)c(C(F)(F)F)c1` [Compound 2m, (E)-1-(4-chloro-3-(trifluoromethyl)phenyl)-3-(4-(3-(furan-2-yl)acryloyl)phenyl)urea], the 50% inhibitory concentration (IC50) in data set [1] turned out to be 6.53 ± 0.24 µM; in data set [3] (Homo sapiens, K562, 48 h), 8.95 ± 0.76 µM.

`O=C(Nc1ccc(C(=O)/C=C/c2cccs2)cc1)Nc1ccc(Cl)c(C(F)(F)F)c1` [Compound 2n, (E)-1-(4-chloro-3-(trifluoromethyl)phenyl)-3-(4-(3-(thiophen-2-yl)acryloyl)phenyl)urea]: the half-inhibitory concentration (IC50) in data set [1] (48 h) is over 20 µM; in data set [5], 2.2 ± 0.1 µM; in data set [3] (Homo sapiens, K562, 48 h), 15.2 ± 1.2 µM.

As to `COc1ccc(/C=C/C(=O)c2ccc(NC(=O)Nc3ccc(Cl)c(C(F)(F)F)c3)cc2)cc1O` [Compound 2o, (E)-1-(4-chloro-3-(trifluoromethyl)phenyl)-3-(4-(3-(3-hydroxy-4-methoxyphenyl)acryloyl)phenyl)urea], the half-maximal inhibitory concentration (IC50) in data set [1] stood at 1.22 ± 0.07 µM; in data set [4] it was 19.1 ± 1.05 µM; in data set [2] (Mus musculus, B16, 48 h), 3.06 ± 0.22 µM; in data set [5], 0.31 ± 0.02 µM; in data set [3] (Homo sapiens, K562, 48 h), 1.51 ± 0.16 µM.

For the compound `COc1cc(/C=C/C(=O)c2ccc(NC(=O)Nc3ccc(Cl)c(C(F)(F)F)c3)cc2)ccc1O` [Compound 2p, (E)-1-(4-chloro-3-(trifluoromethyl)phenyl)-3-(4-(3-(4-hydroxy-3-methoxyphenyl)acryloyl)phenyl)urea], the IC50 in data set [1] came out at 4.25 ± 0.14 µM; in data set [4], 13.9 ± 0.58 µM; in data set [2] (Mus musculus, B16, 48 h) it was 4.37 ± 0.28 µM; in data set [3] (Homo sapiens, K562, 48 h), 3.42 ± 0.18 µM.

Turning to `O=C(Nc1ccc(C(=O)/C=C/c2ccc(O)c(O)c2)cc1)Nc1ccc(Cl)c(C(F)(F)F)c1` [Compound 2q, (E)-1-(4-chloro-3-(trifluoromethyl)phenyl)-3-(4-(3-(3,4-dihydroxyphenyl)acryloyl)phenyl)urea], the IC50 in data set [1] is 2.53 ± 0.09 µM; in data set [4], 24.3 ± 1.71 µM; in data set [2] (Mus musculus, B16, 48 h), 4.49 ± 0.24 µM; in data set [5], 0.55 ± 0.04 µM; in data set [3] (Homo sapiens, K562, 48 h), 1.12 ± 0.1 µM.

With `COc1cc(/C=C/C(=O)c2ccc(NC(=O)Nc3ccc(Cl)c(C(F)(F)F)c3)cc2)cc(OC)c1O` [Compound 2r, (E)-1-(4-chloro-3-(trifluoromethyl)phenyl)-3-(4-(3-(4-hydroxy-3,5-dimethoxyphenyl)acryloyl)phenyl)urea], the IC50 in data set [1] came to 2.22 ± 0.1 µM; in data set [4], 11.3 ± 0.66 µM; in data set [2] (Mus musculus, B16, 48 h), 2.93 ± 0.29 µM; in data set [3] (Homo sapiens, K562, 48 h), 0.97 ± 0.06 µM.

As for `O=C(Nc1ccc(C(=O)/C=C/c2ccc(O)cc2)cc1)Nc1ccc(Cl)c(C(F)(F)F)c1` [Compound 2s, (E)-1-(4-chloro-3-(trifluoromethyl)phenyl)-3-(4-(3-(4-hydroxyphenyl)acryloyl)phenyl)urea], the half-maximal inhibitory concentration (IC50) was determined as 8.96 ± 0.03 µM in data set [1]; 4.29 ± 0.52 µM in data set [2] (Mus musculus, B16, 48 h); 6.47 ± 0.36 µM in data set [3] (Homo sapiens, K562, 48 h).
